# According to PMC11555678, “Improved Broad Spectrum Antifungal Drug Synergies with Cryptomycin, a Cdc50-Inspired Antifungal Peptide” (ACS Infectious Diseases, 2024):
# Like-named read-outs stand apart in the source and are kept apart here. Square brackets hold non-standard residues; d marks the D form. Peptide text beside a SMILES is read from it. * marks the point of attachment. Myristoyl = CCCCCCCCCCCCCC(=O)*; Orn = NCCC[C@H](N)C(=O)O
# Legend:
# C. neoformans Crm1^OE = assay: microbe, parasite or virus in culture; type: cell-based, Cryptococcus neoformans; conditions: 48 h
# Experimental: (§1) All microdilution assays with fungi were carried out in accordance with CLSI protocols from M27 for yeasts and M38 for filamentous fungi, respectively, unless otherwise specified.[64],[65] Briefly, 96-well plates were charged with RPMI1640 media, with operating volume in the first column, 200 μL, and half operating volume, 100 μL, in the remaining wells. Drug stock solution in DMSO was aliquoted into the first well in each row. Half of the volume in the dosed well was serially diluted 2-fold until column 11. Column 11 was used as the negative growth control, and column 12 was used as the positive growth control. ON yeast cultures in YPD were washed twice in DD-H2O, resuspended in PBS, and adjusted to 5000 cfu/mL in RPMI. The 96-well plate was inoculated with 100 μL aliquots of cell suspension per well. Plates were incubated at 37 °C for 2 days.
# C. neoformans H99 = assay: microbe, parasite or virus in culture; type: cell-based, Cryptococcus neoformans
# Experimental: as §1
# C. neoformans MRL862 = assay: microbe, parasite or virus in culture; type: cell-based, Cryptococcus neoformans
# Experimental: as §1
# C. neoformans apt1Δ = assay: microbe, parasite or virus in culture; type: cell-based, Cryptococcus neoformans; conditions: 48 h
# Experimental: as §1
# C. neoformans apt2Δ = assay: microbe, parasite or virus in culture; type: cell-based, Cryptococcus neoformans; conditions: 48 h
# Experimental: as §1
# C. neoformans apt3Δ = assay: microbe, parasite or virus in culture; type: cell-based, Cryptococcus neoformans; conditions: 48 h
# Experimental: as §1
# C. neoformans apt4Δ = assay: microbe, parasite or virus in culture; type: cell-based, Cryptococcus neoformans; conditions: 48 h
# Experimental: as §1
# C. neoformans cdc50Δ = assay: microbe, parasite or virus in culture; type: cell-based, Cryptococcus neoformans; conditions: for MIC: 48 h
# Experimental: as §1
# C. neoformans crm1Δ = assay: microbe, parasite or virus in culture; type: cell-based, Cryptococcus neoformans; conditions: 48 h
# Experimental: as §1
# C. glabrata 2001 = assay: microbe, parasite or virus in culture; type: cell-based, Candida glabrata
# Experimental: as §1
# C. glabrata FKS1-S629P = assay: microbe, parasite or virus in culture; type: cell-based, Candida glabrata; conditions: 48 h
# Experimental: as §1
# C. glabrata FKS2-S663P = assay: microbe, parasite or virus in culture; type: cell-based, Candida glabrata; conditions: 48 h
# Experimental: as §1
# C. albicans SC5413 [1] = assay: microbe, parasite or virus in culture; type: cell-based, Candida albicans
# Experimental: as §1
# C. auris B11245 [2] = assay: microbe, parasite or virus in culture; type: cell-based, Candida auris
# Experimental: as §1
# A. fumigatus AF293 [3] = assay: microbe, parasite or virus in culture; type: cell-based, Aspergillus fumigatus; conditions: AF293, 48 h
# Experimental: as §1
# Cn MRL862 = type: cell-based, Cryptococcus neoformans; conditions: RPMI1640, 37 °C, 48 h
# Experimental: as §1
# (§2) To assess drug synergy, the initial media charged to the plate contained the peptide at twice the final operating concentration; the remaining processing steps were identical to the MIC experiment. Upon addition of 100 μL of inoculant, the final operating concentration was achieved. Control MIC plates were prepared alongside drug synergy plates to account for the day-to-day variability in any individual MIC. FIC index is computed using eq 1. All MIC assays and drug synergy assays were completed with two technical replicates per 96-well plate and a minimum of two biological replicates per drug combination. If a difference in MIC between the two technical replicates on the plate were observed, only the higher concentration was reported as the MIC to reduce the possibility of type 1 error (false positive) [drawing 1] 1
# C. albicans SC5413 [4] = type: cell-based, Candida albicans; conditions: RPMI1640, 37 °C, 48 h; for MIC of antifungal in combination with KKOO: azole MICs unclear (intermediate phenotype); for MIC of antifungal in combination with KKOO-NH2: azole MICs could not be determined (intermediate phenotype)
# Experimental: as §1, §2
# C. auris B11245 [5] = type: cell-based, Candida auris; conditions: for MIC of antifungal in combination with KKOO / MIC of antifungal in combination with KKOO-NH2: RPMI1640, 37 °C, 48 h, CAS: paradoxical growth; for MIC of antifungal in combination with KKOO: MIC = <20% growth; for MIC of antifungal in combination with KKOO-NH2: MIC = well with <20% growth
# Experimental: as §1, §2
# A. fumigatus AF293 [6] = assay: Drug synergy (MIC in peptide-supplemented media); type: cell-based, Aspergillus fumigatus; conditions: RPMI1640, 37 °C, 48 h, CAS: paradoxical growth; for MIC of antifungal in combination with KKOO: MIC = <20% growth; for MIC of antifungal in combination with KKOO-NH2: MIC = well with <20% growth
# Experimental: as §1, §2
# [7] = compound alone, RPMI1640, 37 °C
# [8] = Table S1, unit and conditions not given (MICs elsewhere in μg/mL)
smiles,measurement,setting,value
"CC[C@H](C)C[C@H](C)CCCCCCCCC(=O)N[C@H]1C[C@@H](O)[C@@H](NCCN)NC(=O)[C@@H]2[C@@H](O)CCN2C(=O)[C@H]([C@H](O)CCN)NC(=O)[C@H]([C@H](O)[C@@H](O)c2ccc(O)cc2)NC(=O)[C@@H]2C[C@@H](O)CN2C(=O)[C@H]([C@@H](C)O)NC1=O [CAS, caspofungin]",MIC,C. neoformans Crm1^OE; Cryptococcus neoformans,16 µg/mL
same,MIC,"C. neoformans H99; Cryptococcus neoformans, H99, compound alone, RPMI1640, 37 °C, 48 h, read-out: MIC",16 µg/mL
same,MIC,"C. neoformans MRL862; Cryptococcus neoformans, MRL862, compound alone, RPMI1640, 37 °C, 48 h, read-out: MIC",16 µg/mL
same,MIC,C. neoformans apt1Δ; Cryptococcus neoformans,8 µg/mL
same,MIC,C. neoformans apt2Δ; Cryptococcus neoformans,16 µg/mL
same,MIC,C. neoformans apt3Δ; Cryptococcus neoformans,16 µg/mL
same,MIC,C. neoformans apt4Δ; Cryptococcus neoformans,16 µg/mL
same,MIC,C. neoformans cdc50Δ; Cryptococcus neoformans,4 µg/mL
same,MIC,C. neoformans crm1Δ; Cryptococcus neoformans,16 µg/mL
same,MIC,"C. glabrata 2001; Nakaseomyces glabratus, 2001, compound alone, RPMI1640, 37 °C, 48 h, read-out: MIC",0.5 µg/mL
same,MIC,"C. glabrata FKS1-S629P; Nakaseomyces glabratus, FKS1S629P",2 µg/mL
same,MIC,"C. glabrata FKS2-S663P; Nakaseomyces glabratus, FKS2S663P",4 µg/mL
same,MIC,"C. albicans SC5413 [1]; Candida albicans, SC5413, compound alone, RPMI1640, 37 °C, 48 h, read-out: MIC",0.25 µg/mL
same,MIC,"C. auris B11245 [2]; Candidozyma auris, B11245, compound alone, RPMI1640, 37 °C, 48 h, * = paradoxical growth observed (CAS), read-out: MIC",1 µg/mL
same,MIC,A. fumigatus AF293 [3]; Aspergillus fumigatus,0.125 µg/mL
same,MIC of antifungal in combination with KKOO,Cn MRL862; +0 μg/mL KKOO (control),16 µg/mL
same,MIC of antifungal in combination with KKOO-NH2,Cn MRL862; +0 μg/mL KKOO-NH2 (control),16 µg/mL
same,MIC of antifungal in combination with KKOO-NH2,Cn MRL862; +1 μg/mL KKOO-NH2,16 µg/mL
same,MIC of antifungal in combination with KKOO,Cn MRL862; +1 μg/mL KKOO,16 µg/mL
same,MIC of antifungal in combination with KKOO-NH2,Cn MRL862; +2 μg/mL KKOO-NH2,8 µg/mL
same,MIC of antifungal in combination with KKOO,Cn MRL862; +2 μg/mL KKOO,16 µg/mL
same,MIC of antifungal in combination with KKOO-NH2,Cn MRL862; +4 μg/mL KKOO-NH2,4 µg/mL
same,MIC of antifungal in combination with KKOO,Cn MRL862; +4 μg/mL KKOO,8 µg/mL
same,MIC of antifungal in combination with KKOO,C. albicans SC5413 [4]; +0 μg/mL KKOO (control),0.25 µg/mL
same,MIC of antifungal in combination with KKOO-NH2,C. albicans SC5413 [4]; +0 μg/mL KKOO-NH2 (control),0.25 µg/mL
same,MIC of antifungal in combination with KKOO-NH2,C. albicans SC5413 [4]; +1 μg/mL KKOO-NH2,0.5 µg/mL
same,MIC of antifungal in combination with KKOO,C. albicans SC5413 [4]; +1 μg/mL KKOO,0.5 µg/mL
same,MIC of antifungal in combination with KKOO-NH2,C. albicans SC5413 [4]; +2 μg/mL KKOO-NH2,0.062 µg/mL
same,MIC of antifungal in combination with KKOO,C. albicans SC5413 [4]; +2 μg/mL KKOO,0.125 µg/mL
same,MIC of antifungal in combination with KKOO-NH2,C. albicans SC5413 [4]; +4 μg/mL KKOO-NH2,0.008 µg/mL
same,MIC of antifungal in combination with KKOO,C. albicans SC5413 [4]; +4 μg/mL KKOO,0.556 µg/mL
same,MIC of antifungal in combination with KKOO,C. albicans SC5413 [4]; +8 μg/mL KKOO,0.008 µg/mL
same,MIC of antifungal in combination with KKOO,C. auris B11245 [5]; +0 μg/mL KKOO (control),1 µg/mL
same,MIC of antifungal in combination with KKOO-NH2,C. auris B11245 [5]; +0 μg/mL KKOO-NH2 (control),1 µg/mL
same,MIC of antifungal in combination with KKOO-NH2,C. auris B11245 [5]; +1 μg/mL KKOO-NH2,0.5 µg/mL
same,MIC of antifungal in combination with KKOO,C. auris B11245 [5]; +1 μg/mL KKOO,1 µg/mL
same,MIC of antifungal in combination with KKOO-NH2,C. auris B11245 [5]; +2 μg/mL KKOO-NH2,0.125 µg/mL
same,MIC of antifungal in combination with KKOO,C. auris B11245 [5]; +2 μg/mL KKOO,0.25 µg/mL
same,MIC of antifungal in combination with KKOO-NH2,C. auris B11245 [5]; +4 μg/mL KKOO-NH2,0.031 µg/mL
same,MIC of antifungal in combination with KKOO,C. auris B11245 [5]; +4 μg/mL KKOO,0.031 µg/mL
same,reduction of MIC of antifungal,"C. auris B11245 [5]; in the presence of 2 μg/mL KKOO-NH2, 48 h",8 fold
same,MIC of antifungal in combination with KKOO,A. fumigatus AF293 [6]; +0 μg/mL KKOO (control),0.125 µg/mL
same,MIC of antifungal in combination with KKOO-NH2,A. fumigatus AF293 [6]; +0 μg/mL KKOO-NH2 (control),0.125 µg/mL
same,MIC of antifungal in combination with KKOO-NH2,A. fumigatus AF293 [6]; +1 μg/mL KKOO-NH2,0.031 µg/mL
same,MIC of antifungal in combination with KKOO,A. fumigatus AF293 [6]; +1 μg/mL KKOO,0.062 µg/mL
same,MIC of antifungal in combination with KKOO-NH2,A. fumigatus AF293 [6]; +2 μg/mL KKOO-NH2,0.031 µg/mL
same,MIC of antifungal in combination with KKOO,A. fumigatus AF293 [6]; +2 μg/mL KKOO,0.031 µg/mL
same,MIC of antifungal in combination with KKOO-NH2,A. fumigatus AF293 [6]; +4 μg/mL KKOO-NH2,0.031 µg/mL
same,MIC of antifungal in combination with KKOO,A. fumigatus AF293 [6]; +4 μg/mL KKOO,0.031 µg/mL
same,MIC of antifungal in combination with KKOO-NH2,A. fumigatus AF293 [6]; +8 μg/mL KKOO-NH2,0.031 µg/mL
CCCCCCCCCCCCCC(=O)N[C@@H](Cc1c[nH]c2ccccc12)C(=O)NCC(=O)NCC(=O)N[C@H](C(=O)N[C@@H](CCCN)C(=O)N[C@@H](CCCN)C(=O)N[C@@H](CC(N)=O)C(=O)N[C@@H](Cc1ccc(O)cc1)C(=O)N[C@@H](C)C(N)=O)[C@@H](C)CC [KKOO-NH2] (Myristoyl-WGGI[Orn][Orn]NYA-NH2),MIC,C. neoformans Crm1^OE; [7],4 µg/mL
same,MIC,"C. neoformans H99; H99, 48 h",8 µg/mL
same,MIC (SAR screen peptides),C. neoformans H99; [8],8
same,MIC,"C. neoformans MRL862; MRL862, 48 h",8 µg/mL
same,MIC,C. neoformans apt1Δ; [7],4 µg/mL
same,MIC,C. neoformans apt2Δ; [7],4 µg/mL
same,MIC,C. neoformans apt3Δ; [7],4 µg/mL
same,MIC,C. neoformans apt4Δ; [7],4 µg/mL
same,MIC (SAR screen peptides),C. neoformans cdc50Δ; [8],4
same,MIC,C. neoformans cdc50Δ; [7],4 µg/mL
same,MIC,C. neoformans crm1Δ; [7],4 µg/mL
same,MIC,"C. glabrata 2001; 2001, 48 h",8 µg/mL
same,MIC (SAR screen peptides),C. glabrata 2001; [8],8
same,MIC,C. glabrata FKS1-S629P; [7],8 µg/mL
same,MIC,C. glabrata FKS2-S663P; [7],8 µg/mL
same,MIC,"C. albicans SC5413 [1]; SC5413, 48 h",16 µg/mL
same,MIC (SAR screen peptides),C. albicans SC5413 [1]; [8],16
same,MIC,"C. auris B11245 [2]; B11245, 48 h",16 µg/mL
same,MIC,A. fumigatus AF293 [3],32 µg/mL
